Experimental data published in patent US20240358692A1, “TREATMENT OF SCLERODERMA” (Aisa Pharma, Inc., priority 2023, published 2024).

Columns and labels:
[1] = system: participants with SSc-RP; experiment: SHAQ - Visual Analog Scale - Pain; type: in vivo, human; details: pooled cilnidipine 10 mg and 20 mg arms (combination: + tadalafil 5 mg)
From the text: (§1) The standard, validated, patient reported outcome measures tool for SSc patients, the Scleroderma Health Assessment Questionnaire (SHAQ), will be used to assess the participant qualify of life. Details are attached in the Appendix. The participant quality of life will be scored, and a disability index calculated for each questionnaire completed by the patient at Screening and each in-clinic visit. The absolute change in participant quality of life from baseline to the end of each dosing period will be calculated similar to frequency data as before.
(§2) The standard, validated, patient reported outcome measures tool for SSc patients, the SHAQ, was collected at the time points specified in the study schedules (FIG. 2 and FIGS. 4A and 4B) to assess the participant's quality of life. The SHAQ included a Raynaud's VAS that will also be reported separately.
Pain on the SHAQ outcome measure on the first line in table F is a composite of all pain experienced in patients with SSc, comprising joint pain, back pain, headache, odynophagia, skin ulcer related discomfort, Raynaud's, and neuropathic pain. Aisa Pharma believes, based on the biologic attributes and actions of cilnidipine that differ from most dihydropyridine calcium channel antagonists that cilnidipine might have direct analgesic effects in certain pain conditions and in fact has been designated to receive evaluation through the […] Preclinical Pain Screening Platform Program to investigate the drug in multiple in vitro and in vivo preclinical models of pain that are validated and predictive of effects in man.

[2] = system: participants with SSc-RP; experiment: SHAQ - Visual Analog Scale - Overall Disease Severity; type: in vivo, human; details: for % change overall SSc Disease Severity: SHAQ, mITT Part A
From the text: as §1, §2

[3] = Any Cilnidipine (N = 17), Day 12, PP Population, Part A
[4] = Pooled Cilnidipine 10 mg and Cilnidipine 10 mg + Tadalafil 5 mg, PP, Part A
[5] = Pooled Cilnidipine 20 mg and Cilnidipine 20 mg + Tadalafil 5 mg, PP, Part A
[6] = Pooled Cilnidipine (N = 7), Day 12, Modified ITT Population - Part A
[7] = Pooled Cilnidipine (N = 8), Day 12, PP Population, Part A

In the case of `COCCOC(=O)C1=C(C)NC(C)=C(C(=O)OC/C=C/c2ccccc2)C1c1cccc([N+](=O)[O-])c1` (centres unmarked) [Cilnidipine], the “VAS Pain Percent Change from Baseline Q1” value [1] is reported as −53.33, %, the “VAS Pain Percent Change from Baseline Q3” value [1] is reported as 0.00% and the “SHAQ Visual Analogue Scale - Overall Disease Severity, Change from Baseline, Mean (SD)” value [2, 3] is reported as −0.991 (1.0921). For the same compound, the “SHAQ Visual Analogue Scale - Overall Disease Severity, Change from Baseline, Median” value [2, 3] was −1.100, the “SHAQ Visual Analogue Scale - Overall Disease Severity, In-Clinic Visit (Day 12), Mean (SD)” value [2, 3] was 2.203 (2.1532) and the “SHAQ Visual Analogue Scale - Overall Disease Severity, In-Clinic Visit (Day 12), Median” value (shortened to “SHAQ Visual Analogue Scale … (Day 12), Median”) [2, 3] was 1.400. The “SHAQ Visual Analogue Scale - Overall Disease Severity, Percent Change from Baseline, Mean (SD)” value [2, 3] was −36.33 (43.497) %, the “SHAQ Visual Analogue Scale - Overall Disease Severity, Percent Change from Baseline, Median” value [2, 3] was −42.89% and the “% change overall SSc Disease Severity” value ([2]; Cilnidipine 20 mg (n = 3)) was −63% (i.e.,. The “SHAQ Overall Scleroderma Disease Severity, mean % change” value ([2]; Cilnidipine 20 mg (n = 3), minus = improvement, Table A*) was −63%, the “SHAQ VAS Overall Disease Severity, Change from Baseline, Max” value [2, 4] was 1.90 and the “SHAQ VAS Overall Disease Severity, Change from Baseline, Mean (SD)” value [2, 4] was −0.606 (1.1663). The “SHAQ VAS Overall Disease Severity, Change from Baseline, Min” value [2, 4] was −1.90, the “SHAQ VAS Overall Disease Severity, Change from Baseline, Q1” value [2, 4] was −1.500 and the “SHAQ VAS Overall Disease Severity, Change from Baseline, Q3” value [2, 4] was −0.300. The “SHAQ VAS Overall Disease Severity, Day 12, Max” value [2, 4] was 6.00, the “SHAQ VAS Overall Disease Severity, Day 12, Min” value [2, 4] was 0.00 and the “SHAQ VAS Overall Disease Severity, Day 12, Q1” value [2, 4] was 0.800. For the same compound, the “SHAQ VAS Overall Disease Severity, Day 12, Q3” value [2, 4] was 3.800, the “SHAQ VAS Overall Disease Severity, Percent Change from Baseline, Max” value [2, 4] was 100.0 and the “SHAQ VAS Overall Disease Severity, Percent Change from Baseline, Mean (SD)” value [2, 4] was −24.68 (57.343). For the same compound, the “SHAQ VAS Overall Disease Severity, Percent Change from Baseline, Min” value [2, 4] was −100.0, the “SHAQ VAS Overall Disease Severity, Percent Change from Baseline, Q1” value [2, 4] was −51.01 and the “SHAQ VAS Overall Disease Severity, Percent Change from Baseline, Q3” value [2, 4] was −16.76. For the same compound, the “SHAQ Visual Analogue Scale - Overall Disease Severity, Change from Baseline, Median” value ([2]; Pooled Cilnidipine 20 mg and Cilnidipine 20 mg + Tadalafil 5 mg (N = 7), Day 12, Modified ITT Population - Part A) was −1.500, the “SHAQ Visual Analogue Scale … (Day 12), Median” value ([2]; Pooled Cilnidipine 20 mg and Cilnidipine 20 mg + Tadalafil 5 mg (N = 7), Modified ITT Population - Part A) was 1.200 and the “SHAQ VAS Overall Disease Severity, Change from Baseline, Max” value [2, 5] was −0.40. For the same compound, the “SHAQ VAS Overall Disease Severity, Change from Baseline, Min” value [2, 5] was −3.10, the “SHAQ VAS Overall Disease Severity, Change from Baseline, Q1” value [2, 5] was −1.750 and the “SHAQ VAS Overall Disease Severity, Change from Baseline, Q3” value [2, 5] was −0.650. For the same compound, the “SHAQ VAS Overall Disease Severity, Day 12, Max” value [2, 5] was 7.30, the “SHAQ VAS Overall Disease Severity, Day 12, Median” value [2, 5] was 1.300 and the “SHAQ VAS Overall Disease Severity, Day 12, Min” value [2, 5] was 0.50. For the same compound, the “SHAQ VAS Overall Disease Severity, Day 12, Q1” value [2, 5] was 0.800, the “SHAQ VAS Overall Disease Severity, Day 12, Q3” value [2, 5] was 1.750 and the “SHAQ VAS Overall Disease Severity, Percent Change from Baseline, Max” value [2, 5] was −9.9. For the same compound, the “SHAQ VAS Overall Disease Severity, Percent Change from Baseline, Min” value [2, 5] was −76.2, the “SHAQ VAS Overall Disease Severity, Percent Change from Baseline, Q1” value [2, 5] was −64.44 and the “SHAQ VAS Overall Disease Severity, Percent Change from Baseline, Q3” value [2, 5] was −36.22. For the same compound, the “SHAQ Visual Analogue Scale - Overall Disease Severity, Change from Baseline, Mean” value [2, 6] was −1.214, the “SHAQ Visual Analogue Scale - Overall Disease Severity, Percent Change from Baseline, Mean” value [2, 6] was −59.80% and the “SHAQ Visual Analogue Scale - Overall Disease Severity, Percent Change from Baseline, Median” value [2, 6] was −55.86%. For the same compound, the “SHAQ Visual Analogue Scale - Overall Disease Severity, In-Clinic Visit (Day 12), Mean” value ([2]; Pooled Cilnidipine (N = 7), Modified ITT Population - Part A) was 1.486, the “SHAQ Visual Analogue Scale - Overall Disease Severity, In-Clinic Visit (Day 12), Mean (SD)” value [2, 7] was 1.475 (1.6430) and the “SHAQ Visual Analogue Scale … (Day 12), Median” value [2, 7] was 1.300. For the same compound, the “% change overall SSc Disease Severity” value ([2]; Pooled Cilnidipine (n = 7)) was −60% (i.e.,, the “SHAQ VAS Overall Disease Severity, Change from Baseline, Max” value ([2]; Pooled Cilnidipine, PP, Part A) was 0.20 and the “SHAQ VAS Overall Disease Severity, Change from Baseline, Mean (SD)” value ([2]; Pooled Cilnidipine, PP, Part A) was −1.450 (0.9928). The “SHAQ VAS Overall Disease Severity, Change from Baseline, Median” value ([2]; Pooled Cilnidipine, PP, Part A) was −1.550 and the “SHAQ VAS Overall Disease Severity, Change from Baseline, Min” value ([2]; Pooled Cilnidipine, PP, Part A) was −3.10.
